Laboratory results as given in ChEMBL document CHEMBL1201862, “PubChem BioAssay data set” (2004).
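Cells were grown in 96-well plates and exposed to each compound for 48 hours at five concentrations; endpoints were interpolated linearly between bracketing concentrations, or set to the highest concentration if not reached. GI50 = concentration required for 50% inhibition of growth.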 Activity calls are given as the source filed them. No stated cut-off is given here; in the data, active = GI50 up to about 1.1 µM and inactive = higher.

Assays:
Experiment in all cases: inhibition of tumour cell growth, NCI panel, 48 h
786-0 = tested on: 786-0
HOP-18 = tested on: HOP-18
HT-29 = tested on: HT-29
K562 = tested on: K562
LXFL 529 = tested on: LXFL 529
M14 = tested on: M14
OVCAR-8 = tested on: OVCAR-8
SF-268 = tested on: SF-268
SF-295 = tested on: SF-295
SK-MEL-2 = tested on: SK-MEL-2
SNB-75 = tested on: SNB-75
SNB-78 = tested on: SNB-78
SW-620 = tested on: SW-620
U-251 = tested on: U-251
UACC-62 = tested on: UACC-62
SK-MEL-5 = tested on: SK-MEL-5

Structure (SMILES)	GI50 (786-0)	GI50 (HOP-18)	GI50 (HT-29)	GI50 (K562)	GI50 (LXFL 529)	GI50 (M14)	GI50 (OVCAR-8)	GI50 (SF-268)	GI50 (SF-295)	GI50 (SK-MEL-2)	GI50 (SNB-75)	GI50 (SNB-78)	GI50 (SW-620)	GI50 (U-251)	GI50 (UACC-62)	GI50 (SK-MEL-5)
Cc1ccc(Nc2nc(C)c(C(/C=C/c3ccc(/C=C/C(=N/NC(=O)C[n+]4ccccc4)c4sc(Nc5ccc(C)cc5[N+](=O)[O-])nc4C)cc3)=N\NC(=O)C[n+]3ccccc3)s2)c([N+](=O)[O-])c1	> 100 µM (inactive)	7.96 µM (inactive)	> 100 µM (inactive)	81.3 µM (inactive)	95.7 µM (inactive)	> 100 µM (inactive)	> 100 µM (inactive)	> 100 µM (inactive)	> 100 µM (inactive)	> 100 µM (inactive)	33.5 µM (inactive)	91.2 µM (inactive)	> 100 µM (inactive)	> 100 µM (inactive)	20.6 µM (inactive)	
CC(C)(C)c1nc2c(o1)/C(=N\c1ccccc1)c1ccccc1C2=O	24.4 µM (inactive)	9.53 µM (inactive)	22.7 µM (inactive)	3.55 µM (inactive)	5.48 µM (inactive)	2.33 µM (inactive)	2.72 µM (inactive)	3.55 µM (inactive)	3.99 µM (inactive)	2.53 µM (inactive)	5.61 µM (inactive)	4.27 µM (inactive)	4.47 µM (inactive)	3.85 µM (inactive)	2.17 µM (inactive)	1.42 µM (inactive)
CCOC(=O)/C(C#N)=C/c1[nH]c(C)c(C)c1C	> 100 µM (inactive)	> 100 µM (inactive)	> 100 µM (inactive)	> 100 µM (inactive)	> 100 µM (inactive)	> 100 µM (inactive)	> 100 µM (inactive)	> 100 µM (inactive)	> 100 µM (inactive)	> 100 µM (inactive)	> 100 µM (inactive)	> 100 µM (inactive)	> 100 µM (inactive)	> 100 µM (inactive)	> 100 µM (inactive)	> 100 µM (inactive)
COc1cc(C2=NN(C)C(c3ccc([N+](=O)[O-])o3)C2)cc(OC)c1OC (stereo not drawn)	23.1 µM (inactive)	> 100 µM (inactive)	72.4 µM (inactive)	52 µM (inactive)	38.5 µM (inactive)	53.8 µM (inactive)	> 100 µM (inactive)	> 100 µM (inactive)	> 100 µM (inactive)	> 100 µM (inactive)	83.2 µM (inactive)	> 100 µM (inactive)	11 µM (inactive)	56.8 µM (inactive)	83.2 µM (inactive)	> 100 µM (inactive)
O=C(c1ccccc1)N1C2CCC1C(C(F)(F)F)=C2C(F)(F)F	> 100 µM (inactive)	> 100 µM (inactive)	> 100 µM (inactive)	> 100 µM (inactive)	> 100 µM (inactive)	> 100 µM (inactive)	> 100 µM (inactive)	> 100 µM (inactive)	> 100 µM (inactive)		> 100 µM (inactive)	> 100 µM (inactive)	> 100 µM (inactive)	> 100 µM (inactive)	> 100 µM (inactive)	> 100 µM (inactive)
CS(=O)(=O)OCCn1cnc2nc(NC(=O)c3ccccc3)[nH]c(=O)c21	> 100 µM (inactive)	> 100 µM (inactive)	> 100 µM (inactive)	> 100 µM (inactive)	> 100 µM (inactive)	> 100 µM (inactive)	> 100 µM (inactive)	> 100 µM (inactive)	> 100 µM (inactive)	> 100 µM (inactive)	> 100 µM (inactive)	> 100 µM (inactive)	> 100 µM (inactive)	> 100 µM (inactive)	> 100 µM (inactive)	> 100 µM (inactive)
CCOC(=O)C1C(=O)c2ccccc2CN1Cc1ccccc1 (stereo not drawn)	> 100 µM (inactive)	> 100 µM (inactive)	> 100 µM (inactive)	> 100 µM (inactive)	> 100 µM (inactive)	> 100 µM (inactive)	> 100 µM (inactive)	> 100 µM (inactive)	> 100 µM (inactive)	> 100 µM (inactive)	> 100 µM (inactive)	> 100 µM (inactive)	> 100 µM (inactive)	> 100 µM (inactive)	> 100 µM (inactive)	> 100 µM (inactive)
COc1ccc(NC(=O)CC(=O)NN2C(=O)/C(=C/c3ccc(N(CCC#N)CCC#N)cc3C)N=C2/C=C\c2ccccc2)cc1	> 100 µM (inactive)	18.5 µM (inactive)	> 100 µM (inactive)	> 100 µM (inactive)	> 100 µM (inactive)	> 100 µM (inactive)	> 100 µM (inactive)	> 100 µM (inactive)	> 100 µM (inactive)	> 100 µM (inactive)	59.3 µM (inactive)	> 100 µM (inactive)	> 100 µM (inactive)	> 100 µM (inactive)	> 100 µM (inactive)	> 100 µM (inactive)
O=[N+]([O-])c1ccc(Cl)c(C2CC(c3cccc4ccccc34)=Nc3ccccc3[S+]2[O-])c1 (stereo not drawn)	9.93 µM (inactive)	24.2 µM (inactive)	10.9 µM (inactive)	3.97 µM (inactive)	13.3 µM (inactive)	17.7 µM (inactive)	8.77 µM (inactive)	18.4 µM (inactive)	18.2 µM (inactive)	15.1 µM (inactive)	5.86 µM (inactive)	11.4 µM (inactive)	7.85 µM (inactive)	13.1 µM (inactive)	10.6 µM (inactive)	14.4 µM (inactive)
Oc1cc(-c2cccs2)nc2cc3c(cc12)OCO3	3.78 µM (inactive)	> 100 µM (inactive)	13.6 µM (inactive)	2.42 µM (inactive)	4.79 µM (inactive)	2.55 µM (inactive)	4.66 µM (inactive)	6.43 µM (inactive)	3.48 µM (inactive)	4.99 µM (inactive)	1.41 µM (inactive)	7.36 µM (inactive)	3.03 µM (inactive)	7.43 µM (inactive)	2.92 µM (inactive)	1.75 µM (inactive)
CCOCc1cc(=O)c2cc3c(cc2o1)OC(C)(C)CC3	> 100 µM (inactive)	> 100 µM (inactive)	> 100 µM (inactive)	97.5 µM (inactive)	92.7 µM (inactive)	> 100 µM (inactive)	> 100 µM (inactive)	> 100 µM (inactive)	93.8 µM (inactive)	> 100 µM (inactive)	> 100 µM (inactive)	> 100 µM (inactive)	> 100 µM (inactive)	> 100 µM (inactive)	> 100 µM (inactive)	56.6 µM (inactive)
CCCCCCCCCCCCCC(=O)OC1CC(=O)OC1CO (stereo not drawn)	> 100 µM (inactive)	21.6 µM (inactive)	32.1 µM (inactive)	21.9 µM (inactive)	89.3 µM (inactive)	19.3 µM (inactive)	> 100 µM (inactive)	64 µM (inactive)	21.5 µM (inactive)	> 100 µM (inactive)	79.6 µM (inactive)	37.8 µM (inactive)	71.6 µM (inactive)	53.6 µM (inactive)	19.2 µM (inactive)	91.8 µM (inactive)
COc1cc([C@@H]2c3cc4c(cc3[C@@H](NCc3ccc(C#N)cc3)C3COC(=O)[C@@H]32)OCO4)cc(OC)c1O (stereo partly drawn)	0.632 µM (active)	95.3 µM (inactive)	1.19 µM (inactive)	1.54 µM (inactive)	4.5 µM (inactive)	1.1 µM (active)	1.2 µM (inactive)	1.25 µM (inactive)	0.533 µM (active)	3.27 µM (inactive)	0.628 µM (active)	4.74 µM (inactive)	0.766 µM (active)	0.123 µM (active)	0.55 µM (active)	1.5 µM (inactive)
CC1=C(C(=O)Nc2ccc(C)cc2)C(c2cccc([N+](=O)[O-])c2)C(C(=O)Nc2ccc(C)cc2)=C(C)N1	26.2 µM (inactive)	14.1 µM (inactive)	17.2 µM (inactive)	16.9 µM (inactive)	27.7 µM (inactive)	16.9 µM (inactive)	40 µM (inactive)	16.1 µM (inactive)	28.1 µM (inactive)	20.8 µM (inactive)	16.7 µM (inactive)	27.4 µM (inactive)	35.2 µM (inactive)	20.7 µM (inactive)	13.3 µM (inactive)	20.2 µM (inactive)
COc1ccc(OC)c(-c2cc(O)c3cc4c(cc3n2)OCO4)c1	6.47 µM (inactive)	> 96.2 µM (inactive)	4.12 µM (inactive)	4.11 µM (inactive)	6.92 µM (inactive)	3.94 µM (inactive)	9.59 µM (inactive)	7.74 µM (inactive)	4.15 µM (inactive)	4.1 µM (inactive)	3.44 µM (inactive)	6.98 µM (inactive)	3.83 µM (inactive)	7.59 µM (inactive)	3.58 µM (inactive)	2.98 µM (inactive)
NC(=O)C(=O)CC(=O)c1ccccc1NC1=CC(=O)C(=O)c2ccccc21	> 61.1 µM (inactive)	> 100 µM (inactive)	> 100 µM (inactive)	47 µM (inactive)	50.6 µM (inactive)	46.6 µM (inactive)	48.2 µM (inactive)	> 40.8 µM (inactive)		65.8 µM (inactive)	> 88.3 µM (inactive)	58.6 µM (inactive)	43.8 µM (inactive)	> 70 µM (inactive)	40.6 µM (inactive)	29.3 µM (inactive)
O=C(O)/C(Cl)=C(\Cl)C(=O)Nc1ccccc1	> 100 µM (inactive)	> 100 µM (inactive)	> 100 µM (inactive)	> 100 µM (inactive)	> 100 µM (inactive)	> 100 µM (inactive)		> 100 µM (inactive)	> 100 µM (inactive)	> 100 µM (inactive)	> 100 µM (inactive)	> 100 µM (inactive)	> 100 µM (inactive)	> 100 µM (inactive)	> 100 µM (inactive)	> 100 µM (inactive)
